The values that follow come from patent US20200102264A1, “MARMELIN ANALOGS AND METHODS OF USE IN CANCER TREATMENT” (THE UNIVERSITY OF KANSAS, priority 2014, published 2020).

Structures are written as SMILES. Entries after “also recorded” stand apart in the source; their conditions may differ.

What all share (type): cell-based
The test system of test [1] is HCT116 colon cancer cells. As to the kind of experiment: hexoseaminidase cell proliferation assay, HCT116. From the text:
(§1) Using hexoseaminidase assay, we determined the effect of the compounds on cell proliferation. […]
(§2) Using hexoseaminidase assay, we determined the effect of the compounds on cell proliferation. […] […] […] Overall, the analogs can be used as chemotherapeutic agents against colon and pancreatic cancer.

Test [2] concerns SW480 colon cancer cells. The test is described as follows: hexoseaminidase cell proliferation assay, SW480.
Text: as §1, §2

In test [3] the test system is MiaPaCa-2 pancreatic cancer cells. As to the kind of experiment: hexoseaminidase cell proliferation assay, MiaPaCa-2. Here is the method:
(§3) Using hexoseaminidase assay, we determined the effect of the compounds on cell proliferation. […] The IC50 value at 48 hours is below 10 μM in all the cancer cell lines.
(§4) Using hexoseaminidase assay, we determined the effect of the compounds on cell proliferation. […] The MRL16 IC50 value at 48 hours is below 0.3 μM in Colon cancer cell lines. […] Overall, the analogs can be used as chemotherapeutic agents against colon and pancreatic cancer.

Test [4] relates to PanC-1 pancreatic cancer cells. As to the kind of experiment: hexoseaminidase cell proliferation assay, PanC-1. Here is the method: as §3, §4
The test system of test [5] is colon, pancreatic and bladder cancer cells. The test is described as follows: hexoseaminidase cell proliferation assay, summaries over cell lines. The settings on record: dose and time dependent. Here is the method: Water solubility studies were performed with the CD/analog complexes. […] The observed IC50 value of THBCD at 48 h is below 10 μM in all the colon, pancreatic and bladder cancer cells.
as §3, §4

Test [6] deals with HCT116 cells. The test is described as follows: cell cycle analysis, HCT116. The settings on record: HCT116, Table 3.
The subject of test [7] is SW480 cells. The test is described as follows: cell cycle analysis, SW480. The settings on record: SW480, Table 3. Here is the method: The analogs were tested to determine the ability induce death of colon cancer cells.
In test [8] the test system is HCT116 cells. The test is described as follows: colony formation, HCT116.
Test [9] deals with SW480 cells. The test is described as follows: colony formation, SW480.
The test system of test [10] is cancer stem cells. The test is described as follows: colonosphere formation. Here is the method: It was also determined the analogs inhibit colonosphere formation from cancer stem cells. […] The columns are 0, 10, 25, and 50 micromolar concentrations of the compounds labeled by rows.
The effect of the compounds on colonosphere formation was determined. […] Overall, the analogs have shown they can be used as chemotherapeutic agents against colon, pancreatic and bladder cancer.

The test system of test [11] is KU7 bladder cancer cells. The test is described as follows: hexoseaminidase cell proliferation assay, KU7. Here is the method:
as §3

The subject of test [12] is 253JBV bladder cancer cells. The test is described as follows: hexoseaminidase cell proliferation assay, 253JBV. Here is the method:
as §3

The subject of test [13] is MiaPaCa-2 cells. As to the kind of experiment: colony formation, MiaPaCa-2.
Test [14] has as its system PanC-1 cells. The test is described as follows: colony formation, PanC-1.
[15] abbreviates: Homo sapiens, HCT-116, HCT116, 24 h.
Where [16] appears, read: Homo sapiens, HCT-116, HCT116, 48 h.
Setting [17] is: Homo sapiens, HCT-116, HCT116, 72 h.
Where [18] appears, read: Homo sapiens, MIA PaCa-2, MiaPaCa-2, 24 h.
The mark [19] stands for this setting: Homo sapiens, MIA PaCa-2, MiaPaCa-2, 48 h.
[20] abbreviates: Homo sapiens, MIA PaCa-2, MiaPaCa-2, 72 h.

Usually IC50 stands for the concentration needed to halve the response being measured. The low end stands for greater potency in that assay, the high end for weaker potency in that assay. For `C/C(=N\NC(=O)c1cc2ccccc2cc1O)c1ccc2ccccc2c1O` [MRL20], the IC50 is > 2 µM in test [1] (HCT116, 24 h); 0.5 µM in [1] (HCT116, 48 h); 0.4 µM in test [1] (HCT116, 72 h); > 2 µM in test [2] (SW480, 24 h); 1.2 µM in test [2] (SW480, 48 h); 1 µM in [2] (SW480, 72 h). The IC50 in [3] (MiaPaCa-2, 24 h) is > 10 µM; in [3] (MiaPaCa-2, 48 h), 9 µM; in [3] (MiaPaCa-2, 72 h), 8 µM; in [4] (PanC-1, 24 h), > 10 µM; in [4] (PanC-1, 48 h), 5 µM; in [4] (PanC-1, 72 h), 1 µM. Besides, the “inhibition of cell proliferation (in words)” value (shortened to “inhibition”) in test [5] is reported as “potent inhibitor”.
Turning to `C/C(=N\NC(=O)c1ccco1)c1ccc2ccccc2c1O` [MRL21], the IC50 is 10 µM in [1] (HCT116, 24 h); 3.8 µM in [1] (HCT116, 48 h); 3 µM in test [1] (HCT116, 72 h); > 10 µM in [2] (SW480, 24 h); 5 µM in test [2] (SW480, 48 h); 3 µM in [2] (SW480, 72 h). Further, the IC50 in test [3] (MiaPaCa-2, 24 h) was > 10 µM; in [3] (MiaPaCa-2, 48 h), 5 µM; in test [3] (MiaPaCa-2, 72 h), 5 µM; in test [4] (PanC-1, 24 h), > 10 µM; in test [4] (PanC-1, 48 h), 5 µM; in test [4] (PanC-1, 72 h), 3 µM. Moreover, the “inhibition” value in [5] was “potent inhibitor”.
With `C/C(=N\NC(N)=S)c1ccc2ccccc2c1O` [MRL23], the half-maximal inhibitory concentration (IC50) in test [1] (setting [15]) is > 10 µM; in [1] (setting [16]), > 10 µM; in test [1] (setting [17]) it was > 10 µM; in [2] (Homo sapiens, SW480, 24 h), > 10 µM; in [2] (Homo sapiens, SW480, 48 h), > 10 µM; in [2] (Homo sapiens, SW480, 72 h) it was > 10 µM. Also, the IC50 in [3] (setting [18]) is > 10 µM; in test [3] (setting [19]), 5 µM; in test [3] (setting [20]), 4 µM; in test [4] (Homo sapiens, PANC-1, 24 h), > 10 µM; in test [4] (Homo sapiens, PANC-1, 48 h) it was > 10 µM; in test [4] (Homo sapiens, PANC-1, 72 h), > 10 µM. Besides, the “inhibition” value in test [5] is “potent inhibitor”.
As to `C/C(=N\NC(=O)c1ccc(O)cc1)c1ccc2ccccc2c1O` [MRL24], the IC50 in test [1] (setting [15]) is > 10 µM; in [1] (setting [16]), 3.5 µM; in test [1] (setting [17]) it was 2 µM; in test [2] (Homo sapiens, SW480, 24 h), > 10 µM; in test [2] (Homo sapiens, SW480, 48 h) it was 10 µM; in test [2] (Homo sapiens, SW480, 72 h), 4 µM. Besides, the IC50 in [3] (setting [18]) was > 10 µM; in [3] (setting [19]), > 10 µM; in [3] (setting [20]), 5 µM; in test [4] (Homo sapiens, PANC-1, 24 h), > 10 µM; in test [4] (Homo sapiens, PANC-1, 48 h), 5 µM; in test [4] (Homo sapiens, PANC-1, 72 h), 4 µM. In addition, the “inhibition” value in test [5] is given as “potent inhibitor”.
Turning to `O=C(N/N=C/c1ccc(O)c(O)c1)c1cc2ccccc2cc1O` [MRL DHB], the IC50 is > 50 µM in test [1] (HCT116, 24 h); > 50 µM in test [1] (HCT116, 48 h); > 50 µM in [2] (SW480, 24 h); > 50 µM in test [2] (SW480, 48 h); 15 µM in [2] (SW480, 72 h); > 50 µM in [3] (MiaPaCa-2, 24 h). Also, the IC50 was 25 µM in test [3] (MiaPaCa-2, 48 h); 10 µM in test [3] (MiaPaCa-2, 72 h); 25 µM in test [3] (MiaPaCa-2, 72 h, listed as DHB); > 50 µM in test [4] (PanC-1, 24 h); 15 µM in test [4] (PanC-1, 48 h); 10 µM in [4] (PanC-1, 48 h, listed as DHB). Besides, the IC50 in test [4] (PanC-1, 72 h) stood at 8 µM. Also, the “G0/G1 (%)” value in test [6] amounted to 40.7%; in test [7], 60.7%. In addition, the “G2M (%)” value in [6] is given as 10.4%; in test [7] it was 18.4%. Moreover, the results for the “S (%)” value in test [6] and in test [7] were 13.0% and 14.1%, respectively. For the same compound, the “SubG0 Dead Cells (%)” value came out at 34.2% in [6] and 6.1% in test [7]. In test [5], the “inhibition” value was “potent inhibitor of proliferation of pancreatic cancer cells; also recorded: inhibit proliferation”. Further, the colony formation result in test [8] and in test [9] was “significantly inhibited colony formation” in each case. In [10], the colonosphere formation entry is “significantly inhibited colonosphere formation”.
Take `O=C(N/N=C/c1ccc2ccccc2c1O)c1cc2ccccc2cc1O` [NAL]: the IC50 in test [1] (HCT116, 24 h) was 10 µM; in test [1] (HCT116, 48 h), 6 µM; in test [1] (HCT116, 72 h), 6 µM; in test [2] (SW480, 24 h), 25 µM; in [2] (SW480, 48 h), 8 µM; in test [2] (SW480, 72 h), 8 µM. Moreover, the IC50 in [3] (MiaPaCa-2, 24 h) was determined as 40 µM; in test [3] (MiaPaCa-2, 48 h), 8 µM; in test [3] (MiaPaCa-2, 72 h) it was 6 µM; in test [4] (PanC-1, 24 h) it was 45 µM; in test [4] (PanC-1, 48 h), 10 µM; in [4] (PanC-1, 72 h), 7 µM. Besides, the IC50 in test [11] (KU7, 24 h) is 10 µM; in test [11] (KU7, 48 h), 10 µM; in test [11] (KU7, 72 h), 6 µM; in [12] (24 h) it was > 50 µM; in [12] (48 h) it was 10 µM; in test [12] (72 h) it was 7 µM. In addition, in test [5], the “inhibition” value is listed as “potent inhibitor”. The colony formation result in test [8], in test [9], in test [13] and in [14] was “inhibit colony formation” in each case. Moreover, the colonosphere formation entry in test [10] is given as “potent inhibitors of colonosphere formation”.
Turning to `O=C(N/N=C/c1ccccc1O)c1cc2ccccc2cc1O` [SAL], the 50% inhibitory concentration (IC50) in test [1] (HCT116, 24 h) was 25 µM; in test [1] (HCT116, 48 h) it was 8 µM; in [1] (HCT116, 72 h) it was 6 µM; in [2] (SW480, 24 h), > 50 µM; in test [2] (SW480, 48 h) it was > 50 µM; in test [2] (SW480, 72 h) it was 8 µM. Also, the IC50 in [3] (MiaPaCa-2, 24 h) was > 50 µM; in [3] (MiaPaCa-2, 48 h), > 50 µM; in [3] (MiaPaCa-2, 72 h), 8 µM; in test [4] (PanC-1, 24 h), > 50 µM; in test [4] (PanC-1, 48 h) it was 10 µM; in [4] (PanC-1, 72 h), 8 µM. The colony formation result in test [8], in test [9], in [13] and in test [14] was “inhibit colony formation” each time. Also, the colonosphere formation entry in test [10] is reported as “potent inhibitors of colonosphere formation”.
